Values joined by “and” are separate entries in the source; they are usually repeats but may differ in a detail not shown here. Identical values can stand only once. Like-named read-outs stand apart in the source and are kept apart here.
Legend:
NFκB = NFκB assay in microglia; format: cell-based, mouse; conditions: 2 hrs; 20 μM doxycycline, 1 μM TRAM-34; FIG. 2E
Protocol: The detection of cells with active NFκB was performed according to the method described by Franciosi, S., et al.; (2006) J Neurosci 26, 11652-11664. Briefly, microglia were plated as described above and treated with activators for 2 hrs. Cells were fixed and stained with anti-NF-κBp65 antibody (1:250, Chemicon) and with the nuclear dye DAPI.

KCa3.1 = target: T1, KCa3.1 (Mus musculus, UniProt O89109); assay: Whole-cell patch-clamp of mouse microglia KCa currents; format: cell-based; conditions: 1 μM TRAM-34; voltage-ramps −120 to +40 mV; FIG. 4A
T1 construct: endogenous in cells; host or cells: primary mouse microglia harvested from the astrocyte feeder layer
T1 sequence (O89109 whole entry): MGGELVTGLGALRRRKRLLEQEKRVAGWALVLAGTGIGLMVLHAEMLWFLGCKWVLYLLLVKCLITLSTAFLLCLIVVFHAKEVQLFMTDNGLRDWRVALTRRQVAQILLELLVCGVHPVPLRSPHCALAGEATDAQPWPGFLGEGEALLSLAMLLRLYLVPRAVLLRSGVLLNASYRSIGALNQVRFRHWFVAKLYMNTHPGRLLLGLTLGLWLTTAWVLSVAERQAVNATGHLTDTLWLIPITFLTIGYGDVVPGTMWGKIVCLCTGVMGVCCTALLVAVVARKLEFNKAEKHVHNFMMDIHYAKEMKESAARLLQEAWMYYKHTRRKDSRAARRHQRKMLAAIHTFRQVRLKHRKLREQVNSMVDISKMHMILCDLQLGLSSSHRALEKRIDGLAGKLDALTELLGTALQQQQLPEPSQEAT
Protocol: Microglia, that were “floating off” from their feeding astrocyte layer, were harvested with a pipette, washed, attached to poly-L-lysine coated cover-slips, and then studied in the whole-cell mode of the patch-clamp technique with an EPC-10 HEKA amplifier. The pipette solution contained 145 mM K^+ aspartate, 2 mM MgCl2, 10 mM HEPES, 10 mM K2EGTA and 8.5 mM CaCl2 (1 μM free Ca^2+), pH 7.2, 290 mOsm. To reduce chloride “leak” currents, we used a Na^+ aspartate external solution containing 160 mM Na^+ aspartate, 4.5 mM KCl, 2 CaCl2, 1 mM MgCl2, 5 mM HEPES, pH 7.4, 300 mOsm. K^+ currents were elicited with voltage ramps from −120 to 40 mV of 200 ms duration applied every 10 s. […] Cell capacitance, a direct measurement of cell surface area, was continuously monitored during recordings. KCa3.1 current density was determined by dividing the TRAM-34-sensitive slope conductance by the cell capacitance.

hippocampal neurons = assay: Indirect neurotoxicity of conditioned medium from AβO-treated microglia on hippocampal neurons; format: cell-based, mouse; conditions: 25% CM, 24 hrs
Protocol: Cultures were washed extensively and changed to the Neurobasal medium with B27 supplement (NB/B27, Invitrogen) without serum and cultured for another 24 hrs. The NB/B27-based microglia CMs were collected, briefly centrifuged, and used immediately or frozen for future uses.
Hippocampal neuronal cultures were prepared from newborn wild type C57BL/6J mice according to the method of Xiang et al (26). Neurons were cultured in NB/B27 at a density of 2.5×10^5 cells/well in 12-well plates or 8×10^5 cells/well in 6-well plates for at least 14 days before they were treated with microglia CM.
Hippocampal neurons were prepared as described above and were plated onto 96-well plate at a density of 6×10^4 cells/well and cultured for 14 days. CM from microglia cultures was added onto neurons with indicated dilutions, and cultures were incubated for 24 hrs.
For immunofluorescent staining of neurons, cultures were fixed in 4% paraformaldehyde and stained with anti-PSD95 (1:200, Cell Signaling), anti-MAP2 (1:500, Chemicon) and anti-acetylated α-tubulin (1:250, Zymed). […] Immunostained images were observed under a Nikon Eclipse E600 microscope and photographed by a digital camera (SPOT RTke, SPOT Diagnostics, Sterling Heights, Mich.).
For quantification of the PSD95-immunoreactive puncta along the dendrites, photomicrographs of PSD95 immunostained cultures were randomly taken from each culture condition. The images were transformed to 8 bit gray scale and analyzed with the Image J program. The number of puncta in each photomicrograph was counted and normalized by dendritic length. The photography and analysis were conducted in an investigator-blinded manner
Lysates were briefly sonncated and cleared by centrifugation at 50,000 rpm for 10 min. Equivalent amounts of protein were analyzed by Tris/HCL gel electrophoresis. Proteins were transferred to polyvinylidene difluoride membranes and probed with antibodies. Visualization was performed using enhanced chemiluminescence (ECL, Amersham Pharmacia, Piscataway, N.J.).

[1] = Pharmacokinetics and brain concentrations in rats (HPLC/MS); conditions: rat
Protocol: At various time points following the injection approximately 100-200 μl of blood were collected from a tail nick into EDTA blood sample collection tubes. […] Blood samples were taken by cardiac puncture under deep isoflurane anesthesia. The right atrium was then cut open and 20 mL of saline slowly injected into the left ventricle to flush the blood out of the circulation. The rats were then sacrificed and brains removed. Plasma was separated by centrifugation and samples stored at −80° C. pending analysis. Plasma and homogenized brain samples were purified using C18 solid phase extraction (SPE) cartridges. […] LC/MS analysis was performed with a Hewlett-Packard 1100 series HPLC stack equipped with a Merck KGaA RT 250-4 LiChrosorb RP-18 column interfaced to a Finnigan LCQ Classic MS. The mobile phase consisted of acetonitrile and water, both containing 0.2% formic acid.

[2] = Plasma protein binding by ultrafiltration; format: in vitro ADME, rat; conditions: rat plasma spiked with 50 and 100 μM
Protocol: (§1) The centrifugate (=free TRAM-34) was directly analyzed for TRAM-34 by HPLC-MS. The retentate was collected by inverting the filter into an Eppendorf tube and spinning at 14000 rpm for 15 min.

plasma protein = assay: Plasma protein binding by ultrafiltration; format: in vitro ADME, rat
Protocol: as §1

[3] = system: middle cerebral artery occlusion (MCAO); assay: MCAO with 7 days of reperfusion, treatment started 2 h after reperfusion; format: in vivo, rat; conditions: 10 mg/kg twice daily 7 days from 2 h after reperfusion
Description: Adult male Wistar rats weighing 160-180 g were purchased from Charles River (Wilmington, Mass.), acclimatized to the new vivarium for 5-7 days and used for the surgery when they weighed 200-230 g. Rats were anesthetized using box induction with 5% isoflurane and then maintained on 0.5%-1.5% isoflurane in medical grade oxygen via a facemask. In order to assure consistent reduction of cerebral blood flow (CBF) throughout the procedure, we affixed a small hand-made adaptor for the Laser Doppler probe (Moor Instruments, Wilmington, Del.) to the surface of the skull. The center of the adapter was 5 mm lateral to the central fusion line and 2.5 mm posterior to bregma. […] Neurological deficits were scored according to a 4-score test and a tactile and/or proprioceptive limb-placing test as follows: 1) 4-score test (higher score for more severe neurological deficits): 0=no apparent deficit; 1=contralateral forelimb is consistently flexed during suspension by holding the tail; 2=decreasing grip ability on the contralateral forelimb while tail pulled; 3=spontaneous movement in all directions but circling to contralateral side when pulled by the tail; 4=spontaneous contralateral circling or depressed level of consciousness. […] The paw was pulled down and away from the platform edge, and the ability to retrieve and place the paw on the table surface upon sudden release was assessed. […]

[4] = mice, previously determined; cited from earlier work

With `Clc1ccccc1C(c1ccccc1)(c1ccccc1)n1cccn1` [TRAM-34, 1-[(2-chlorophenyl)diphenylmethyl]-1H-pyrazole] as the compound, how does the “AβO-induced NFκB activation (p65-immunoreactive cells)” value (NFκB) read?
Its value is “prevented”.

What about the “LPS-induced NFκB activation” value (NFκB) of the same compound?
Its value is “not significantly”.

And the “sensitivity of voltage-independent current component” value (KCa3.1)?
Its value is “sensitive”.

And the “dendritic morphology of neurons after CM from AβO-treated microglia co-incubated with inhibitor” value (hippocampal neurons)?
The value was “did not alter the dendritic morphology”.

And the “levels of Ac-TN, MAP2, PSD95, and GRIP1 after CM from AβO-treated microglia co-incubated with inhibitor” value (hippocampal neurons; Western blot)?
Its value is “did not cause significant decreases”.

What about the “AβO-CM-induced reduction of PSD95-immunoreactive puncta” value (hippocampal neurons; microglia co-treated with 20 μM doxycycline or 1 μM TRAM-34, FIG. 6D) of the same compound?
Its value is “prevented”.

What about the Kp ([1]; Wistar, in vivo) of the same compound?
Its Kp is 1.2.

And the half-life ([1]; male, Wistar, in vivo, iv, 10 mg/kg, half-life, rat plasma, calculated from elimination part of i.v. plot)?
The half-life was ~2 h.

And the “total plasma and brain levels, peak” value ([1]; i.p. 10 mg/kg, between 30 min and 1 hour)?
The value was “around 2.5”.

And the plasma peaks ([1]; s.c. 120 mg/kg)?
Its plasma peaks is 2.5 ± 1 µM.

What about the fraction unbound [2] of the same compound?
Its fraction unbound is 0.02.

What about the “unbound (=free) fraction” value (plasma protein; rat plasma) of the same compound?
The value was 2.0±0.4% and 2%.

And the plasma protein binding (plasma protein; rat plasma spiked with 50 and 100 μM)?
The plasma protein binding was 98%.

What about the “amount of activated (ED1+) microglia/macrophages in infarcted hemisphere” value [3] of the same compound?
Its value is “reduced”.

What about the “mean infarct area, % of ipsolateral triphenyltetrazolium chloride positive hemisphere area” value ([3]; control 18.8±3.5%, mean±SEM, P=0.007) of the same compound?
The value was 6.6±1.9%.

What about the half-life [4] of the same compound?
The half-life was 1 h.

Source: patent US20130281504A1, “Reduction of Microglia-Mediated Neurotoxicity by KCa3.1 Inhibition” (THE REGENTS OF THE UNIVERSITY OF CALIFORNIA, priority 2010, published 2013)
